Test results reported in ChEMBL document CHEMBL5653631, “A Potent and Selective ULK1 Inhibitor Suppresses Autophagy and Sensitizes Cancer Cells to Nutrient Stress” (iScience, 2018).
Each block holds one molecule with its values, some of them ahead of it.

What was measured:
[1] = target: Cyclin-dependent kinase 7 (Homo sapiens) (UniProt P50613); assay: Inhibition of human recombinant CDK7 at 500 nM in presence of ATP by radiometric assay relative to control
[2] = target: Serine/threonine-protein kinase PLK3 (Homo sapiens) (UniProt Q9H4B4); assay: Inhibition of human recombinant PLK3 at 500 nM in presence of ATP by radiometric assay relative to control
[3] = target: Angiopoietin-1 receptor (Homo sapiens) (UniProt Q02763); assay: Inhibition of human recombinant Tie2 at 500 nM in presence of ATP by radiometric assay relative to control
[4] = target: T1, cAMP-dependent protein kinase catalytic subunit PRKX (Homo sapiens) (UniProt P51817); assay: Inhibition of human recombinant PRKX at 500 nM related to control ULK1
T1 sequence (whole entry): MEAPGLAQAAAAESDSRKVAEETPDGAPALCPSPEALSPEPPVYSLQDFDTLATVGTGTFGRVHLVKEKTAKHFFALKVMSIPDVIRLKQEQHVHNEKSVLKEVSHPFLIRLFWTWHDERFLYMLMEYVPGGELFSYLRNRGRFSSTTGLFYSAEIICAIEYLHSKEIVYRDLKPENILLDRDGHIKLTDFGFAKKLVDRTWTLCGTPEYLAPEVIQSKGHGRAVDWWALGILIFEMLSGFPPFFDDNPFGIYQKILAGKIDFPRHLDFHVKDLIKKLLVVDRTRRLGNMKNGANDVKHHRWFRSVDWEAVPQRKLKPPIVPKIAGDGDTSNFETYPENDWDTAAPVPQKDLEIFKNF

[5] = target: T2, Serine/threonine-protein kinase tousled-like 1 (Homo sapiens) (UniProt Q9UKI8); assay: Inhibition of human recombinant TLK1 at 15 nM related to control ULK1
T2 sequence (whole entry): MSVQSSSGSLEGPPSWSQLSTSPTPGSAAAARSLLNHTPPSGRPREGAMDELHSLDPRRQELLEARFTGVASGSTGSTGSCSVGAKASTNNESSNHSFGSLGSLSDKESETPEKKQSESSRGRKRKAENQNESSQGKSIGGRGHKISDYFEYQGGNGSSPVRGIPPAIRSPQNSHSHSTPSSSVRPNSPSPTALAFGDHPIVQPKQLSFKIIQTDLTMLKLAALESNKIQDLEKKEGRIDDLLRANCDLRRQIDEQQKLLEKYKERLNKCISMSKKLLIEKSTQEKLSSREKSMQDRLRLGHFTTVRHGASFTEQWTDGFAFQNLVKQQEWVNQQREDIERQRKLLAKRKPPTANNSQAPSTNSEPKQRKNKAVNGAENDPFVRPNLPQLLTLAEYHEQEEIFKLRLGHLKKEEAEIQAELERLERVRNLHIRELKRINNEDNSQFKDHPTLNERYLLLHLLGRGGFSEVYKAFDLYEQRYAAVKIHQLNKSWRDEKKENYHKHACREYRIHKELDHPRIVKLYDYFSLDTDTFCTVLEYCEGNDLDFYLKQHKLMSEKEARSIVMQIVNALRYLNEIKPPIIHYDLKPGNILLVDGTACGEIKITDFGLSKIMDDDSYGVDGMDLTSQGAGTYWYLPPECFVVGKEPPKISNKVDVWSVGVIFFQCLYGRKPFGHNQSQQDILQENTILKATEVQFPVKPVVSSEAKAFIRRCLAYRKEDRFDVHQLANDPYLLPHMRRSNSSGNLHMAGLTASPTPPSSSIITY

[6] = target: Tyrosine-protein kinase JAK1 (Homo sapiens) (UniProt P23458); assay: Inhibition of human recombinant JAK1 at 40 nM in presence of ATP by radiometric assay relative to control
[7] = target: T3, Mitogen-activated protein kinase kinase kinase 3 (Homo sapiens) (UniProt Q99759); assay: Inhibition of human recombinant MAP3K3 at 40 nM in presence of ATP by radiometric assay relative to control
T3 sequence (whole entry): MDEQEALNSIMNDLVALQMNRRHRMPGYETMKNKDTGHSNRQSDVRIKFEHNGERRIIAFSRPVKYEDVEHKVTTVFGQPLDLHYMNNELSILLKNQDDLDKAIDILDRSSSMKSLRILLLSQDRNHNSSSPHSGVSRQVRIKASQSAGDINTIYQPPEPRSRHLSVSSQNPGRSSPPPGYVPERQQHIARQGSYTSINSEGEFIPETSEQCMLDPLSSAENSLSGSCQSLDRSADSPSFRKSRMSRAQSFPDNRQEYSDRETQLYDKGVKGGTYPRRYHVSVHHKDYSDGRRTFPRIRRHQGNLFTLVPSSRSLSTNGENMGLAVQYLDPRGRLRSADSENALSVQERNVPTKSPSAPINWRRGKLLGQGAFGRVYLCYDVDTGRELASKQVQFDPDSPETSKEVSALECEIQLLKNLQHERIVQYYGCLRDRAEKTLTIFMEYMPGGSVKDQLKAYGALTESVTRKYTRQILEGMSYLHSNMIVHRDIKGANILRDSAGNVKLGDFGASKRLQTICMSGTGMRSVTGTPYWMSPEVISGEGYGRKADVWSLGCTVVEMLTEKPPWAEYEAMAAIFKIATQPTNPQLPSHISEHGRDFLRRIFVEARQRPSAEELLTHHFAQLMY

[8] = target: MAP kinase-activated protein kinase 2 (Homo sapiens) (UniProt P49137); assay: Inhibition of human recombinant MAPKAPK2 at 40 nM in presence of ATP by radiometric assay relative to control
[9] = target: T4, Protein kinase C zeta type (Homo sapiens) (UniProt Q05513); assay: Inhibition of human recombinant PKCz at 40 nM in presence of ATP by radiometric assay relative to control
T4 sequence (whole entry): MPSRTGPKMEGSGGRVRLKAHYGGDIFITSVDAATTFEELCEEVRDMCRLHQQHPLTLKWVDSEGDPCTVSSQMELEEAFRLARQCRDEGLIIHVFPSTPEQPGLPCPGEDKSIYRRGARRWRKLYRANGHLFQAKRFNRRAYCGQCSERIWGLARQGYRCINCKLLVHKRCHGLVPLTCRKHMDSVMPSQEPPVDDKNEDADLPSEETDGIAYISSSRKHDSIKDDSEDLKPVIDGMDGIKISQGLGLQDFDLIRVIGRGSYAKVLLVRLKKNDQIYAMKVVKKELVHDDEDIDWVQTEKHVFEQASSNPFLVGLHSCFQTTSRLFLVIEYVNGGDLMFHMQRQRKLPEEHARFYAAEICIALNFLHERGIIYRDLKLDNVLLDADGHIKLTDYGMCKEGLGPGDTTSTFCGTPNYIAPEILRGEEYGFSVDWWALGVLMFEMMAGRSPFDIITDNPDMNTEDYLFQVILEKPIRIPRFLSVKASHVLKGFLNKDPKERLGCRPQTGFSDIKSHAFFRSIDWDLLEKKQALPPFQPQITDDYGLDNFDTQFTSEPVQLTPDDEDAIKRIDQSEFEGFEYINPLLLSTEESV

Chain of MAP kinase-activated protein kinase 2 (Homo sapiens) (P49137 whole entry, looked up): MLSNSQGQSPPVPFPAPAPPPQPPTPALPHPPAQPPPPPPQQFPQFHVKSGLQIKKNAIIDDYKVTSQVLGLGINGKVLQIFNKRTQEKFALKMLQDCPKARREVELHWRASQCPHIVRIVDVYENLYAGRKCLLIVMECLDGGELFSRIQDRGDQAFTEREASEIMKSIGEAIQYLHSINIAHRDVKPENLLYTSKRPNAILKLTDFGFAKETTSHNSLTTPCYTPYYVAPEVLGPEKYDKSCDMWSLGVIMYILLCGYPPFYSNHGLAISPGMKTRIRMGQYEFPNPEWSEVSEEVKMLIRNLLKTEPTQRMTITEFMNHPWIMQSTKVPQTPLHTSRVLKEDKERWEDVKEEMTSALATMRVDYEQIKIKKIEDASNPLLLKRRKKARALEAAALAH
Chain of Angiopoietin-1 receptor (Homo sapiens) (Q02763 whole entry): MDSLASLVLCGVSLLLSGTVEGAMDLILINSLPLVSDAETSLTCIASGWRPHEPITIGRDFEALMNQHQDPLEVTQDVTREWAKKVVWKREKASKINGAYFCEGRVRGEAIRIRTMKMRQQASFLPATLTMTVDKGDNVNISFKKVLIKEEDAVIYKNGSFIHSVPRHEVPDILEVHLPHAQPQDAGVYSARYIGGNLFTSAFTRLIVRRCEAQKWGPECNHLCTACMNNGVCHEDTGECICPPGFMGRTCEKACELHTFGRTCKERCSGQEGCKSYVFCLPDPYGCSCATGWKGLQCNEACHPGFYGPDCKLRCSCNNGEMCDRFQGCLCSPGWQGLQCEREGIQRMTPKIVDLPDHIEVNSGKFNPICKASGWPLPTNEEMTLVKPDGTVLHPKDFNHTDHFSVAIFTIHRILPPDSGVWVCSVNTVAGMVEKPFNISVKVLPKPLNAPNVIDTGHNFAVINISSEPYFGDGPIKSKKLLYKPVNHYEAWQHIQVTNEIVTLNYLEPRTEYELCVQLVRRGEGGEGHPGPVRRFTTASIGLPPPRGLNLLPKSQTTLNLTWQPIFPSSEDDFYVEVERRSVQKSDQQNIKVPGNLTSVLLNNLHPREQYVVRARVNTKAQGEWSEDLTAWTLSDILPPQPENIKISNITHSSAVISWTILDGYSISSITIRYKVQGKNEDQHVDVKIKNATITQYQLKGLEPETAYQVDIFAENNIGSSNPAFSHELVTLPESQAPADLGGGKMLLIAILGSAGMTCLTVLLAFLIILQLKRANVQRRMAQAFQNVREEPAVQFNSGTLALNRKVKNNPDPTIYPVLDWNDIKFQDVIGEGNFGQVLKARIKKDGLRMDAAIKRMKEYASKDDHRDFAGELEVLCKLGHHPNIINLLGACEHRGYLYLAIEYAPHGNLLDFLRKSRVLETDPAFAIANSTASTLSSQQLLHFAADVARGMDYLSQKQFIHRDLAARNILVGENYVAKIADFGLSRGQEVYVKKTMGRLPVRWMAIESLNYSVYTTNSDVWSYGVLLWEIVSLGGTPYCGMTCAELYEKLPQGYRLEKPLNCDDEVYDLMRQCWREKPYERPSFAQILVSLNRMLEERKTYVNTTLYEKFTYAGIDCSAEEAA
Chain of Tyrosine-protein kinase JAK1 (Homo sapiens) (P23458 whole entry): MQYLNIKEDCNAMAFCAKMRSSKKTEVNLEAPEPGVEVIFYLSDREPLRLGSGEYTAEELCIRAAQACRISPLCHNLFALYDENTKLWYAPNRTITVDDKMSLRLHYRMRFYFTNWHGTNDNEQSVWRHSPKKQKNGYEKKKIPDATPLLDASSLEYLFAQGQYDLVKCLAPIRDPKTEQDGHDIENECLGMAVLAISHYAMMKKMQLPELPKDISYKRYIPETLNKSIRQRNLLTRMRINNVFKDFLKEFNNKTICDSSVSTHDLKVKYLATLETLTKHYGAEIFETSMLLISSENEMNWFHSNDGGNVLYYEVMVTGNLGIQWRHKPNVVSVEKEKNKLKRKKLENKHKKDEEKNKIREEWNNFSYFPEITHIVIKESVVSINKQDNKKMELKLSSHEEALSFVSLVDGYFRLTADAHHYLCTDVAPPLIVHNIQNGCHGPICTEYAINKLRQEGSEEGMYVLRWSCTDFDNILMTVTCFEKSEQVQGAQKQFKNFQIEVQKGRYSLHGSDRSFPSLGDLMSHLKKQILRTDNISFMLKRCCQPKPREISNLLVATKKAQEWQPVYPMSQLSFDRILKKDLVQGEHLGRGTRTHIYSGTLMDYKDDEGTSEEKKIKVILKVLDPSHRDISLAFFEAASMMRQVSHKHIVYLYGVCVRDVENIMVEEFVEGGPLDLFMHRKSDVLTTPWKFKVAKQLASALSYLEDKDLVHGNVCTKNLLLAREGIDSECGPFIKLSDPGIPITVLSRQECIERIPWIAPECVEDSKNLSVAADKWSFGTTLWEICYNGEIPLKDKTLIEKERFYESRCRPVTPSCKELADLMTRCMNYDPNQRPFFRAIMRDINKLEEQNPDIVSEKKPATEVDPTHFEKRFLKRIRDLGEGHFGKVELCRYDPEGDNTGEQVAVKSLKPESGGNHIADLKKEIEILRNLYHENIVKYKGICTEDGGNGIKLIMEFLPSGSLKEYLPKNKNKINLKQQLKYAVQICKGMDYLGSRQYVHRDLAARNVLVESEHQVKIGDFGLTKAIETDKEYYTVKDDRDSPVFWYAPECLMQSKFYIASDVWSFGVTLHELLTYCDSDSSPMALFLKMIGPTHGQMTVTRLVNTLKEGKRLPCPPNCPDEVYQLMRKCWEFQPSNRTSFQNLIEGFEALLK
Chain of Cyclin-dependent kinase 7 (Homo sapiens) (P50613 whole entry): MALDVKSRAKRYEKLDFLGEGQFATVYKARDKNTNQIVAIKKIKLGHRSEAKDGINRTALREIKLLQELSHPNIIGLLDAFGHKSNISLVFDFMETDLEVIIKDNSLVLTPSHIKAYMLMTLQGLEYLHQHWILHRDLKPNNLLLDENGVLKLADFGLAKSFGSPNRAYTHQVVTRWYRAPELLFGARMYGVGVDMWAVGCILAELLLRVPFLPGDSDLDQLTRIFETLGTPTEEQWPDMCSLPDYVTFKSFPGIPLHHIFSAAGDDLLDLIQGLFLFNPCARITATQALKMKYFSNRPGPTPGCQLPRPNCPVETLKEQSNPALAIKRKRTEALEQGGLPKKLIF
Chain of Serine/threonine-protein kinase PLK3 (Homo sapiens) (Q9H4B4 whole entry, looked up): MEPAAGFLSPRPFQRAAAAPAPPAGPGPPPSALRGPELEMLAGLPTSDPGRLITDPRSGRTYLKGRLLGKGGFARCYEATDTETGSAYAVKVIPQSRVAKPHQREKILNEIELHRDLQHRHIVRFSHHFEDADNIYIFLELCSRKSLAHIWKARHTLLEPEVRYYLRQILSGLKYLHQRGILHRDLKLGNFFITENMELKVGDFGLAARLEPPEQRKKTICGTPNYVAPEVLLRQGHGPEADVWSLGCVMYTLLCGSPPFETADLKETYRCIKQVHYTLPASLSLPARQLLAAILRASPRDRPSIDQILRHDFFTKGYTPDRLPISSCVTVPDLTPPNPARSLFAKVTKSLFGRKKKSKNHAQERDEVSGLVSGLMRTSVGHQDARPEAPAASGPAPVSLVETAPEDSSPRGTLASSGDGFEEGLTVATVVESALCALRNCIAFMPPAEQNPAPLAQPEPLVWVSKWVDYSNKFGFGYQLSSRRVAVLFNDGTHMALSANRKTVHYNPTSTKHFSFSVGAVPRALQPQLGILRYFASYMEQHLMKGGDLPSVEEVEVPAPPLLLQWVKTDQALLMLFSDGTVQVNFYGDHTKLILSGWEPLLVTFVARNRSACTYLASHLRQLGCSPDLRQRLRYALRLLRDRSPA

inhibition [1]: 29% | inhibition [2]: 0% | inhibition [3]: 23% | fold change (FC) [4]: 0.22
Compound: CNC(=O)c1ccccc1Oc1nc(Nc2cc(OC)c(OC)c(OC)c2)ncc1Br

fold change (FC) [5]: 0
Compound: CC(C)[C@H](NC(=O)c1cc(-c2cnn3cc(-c4ccc(OCCN5CCCCC5)cc4)cnc23)cs1)C(F)(F)F

inhibition [6]: 0% | inhibition [7]: 0% | inhibition [8]: 0% | inhibition [9]: 0%
Compound: O=C(N[C@@H](C1CC1)C(F)(F)F)c1cc(-c2cnn3cc(-c4ccc(F)cc4)cnc23)cs1
